According to patent US20210318292A1, “System and Method to Detect Small Molecules” (Sensorium Bio, Inc., priority 2020, published 2021):
One block for each molecule: values may come before it.

Legend:
mOR256 = test: Luminescent assay (cAMP-responsive luciferase reporter); format: cell-based; settings: FIG. 6B; luciferase reporter read 5.5 hours after stimulation
MOR272-1 = settings: cited from earlier work
OR1A1 [1] = target: T1, OR1A1 (Homo sapiens, UniProt Q9P1Q5); settings: cited from earlier work
T1 sequence (Q9P1Q5 1-309): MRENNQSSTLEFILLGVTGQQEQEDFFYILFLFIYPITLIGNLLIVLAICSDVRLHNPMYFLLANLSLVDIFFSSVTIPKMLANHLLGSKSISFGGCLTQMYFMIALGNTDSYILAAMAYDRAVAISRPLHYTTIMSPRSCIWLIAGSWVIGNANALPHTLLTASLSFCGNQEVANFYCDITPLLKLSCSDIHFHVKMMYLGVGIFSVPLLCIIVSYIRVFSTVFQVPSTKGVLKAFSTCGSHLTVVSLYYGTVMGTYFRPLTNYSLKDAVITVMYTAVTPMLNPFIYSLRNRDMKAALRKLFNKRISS

MOR203-1 = settings: cited from earlier work
OR2W1 = target: T2, OR2W1 (Homo sapiens, UniProt Q9Y3N9); settings: cited from earlier work
T2 sequence (Q9Y3N9 1-320): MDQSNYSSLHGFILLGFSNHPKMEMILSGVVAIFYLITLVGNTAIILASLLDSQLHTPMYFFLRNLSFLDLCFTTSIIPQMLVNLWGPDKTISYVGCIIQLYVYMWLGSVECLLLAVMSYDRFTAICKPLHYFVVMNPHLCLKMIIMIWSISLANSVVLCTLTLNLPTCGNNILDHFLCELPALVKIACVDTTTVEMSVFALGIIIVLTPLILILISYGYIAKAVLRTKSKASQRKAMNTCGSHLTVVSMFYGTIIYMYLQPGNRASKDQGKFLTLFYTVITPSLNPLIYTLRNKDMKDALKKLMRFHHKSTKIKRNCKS

OR1A1 [2] = target: T1, OR1A1; test: Luminescent assay (cAMP-responsive luciferase reporter); format: cell-based; settings: FIG. 6A; luciferase reporter read 5.5 hours after stimulation
Method: Cells are seeded at a density of 15,000 cells per well in a solid white 96-well microplate and allowed to adhere prior to be transfected with different plasmids including but not limited to 10 ng GPCR-expressing plasmid and 10 ng cAMP-responsive luciferase reporter plasmid. The day following the transfection, the receptor-expressing cells are then stimulated with the ligands being tested. After a period to 5.5 hours following the stimulation, the cells are lysed and the luciferase reporter activity is measured following the manufacturer protocol. The amount of luciferase activity is proportional to the ligand-mediated activation level of the exogenous GPCR. FIG. 6 is the result of luminescent assay showing dose response curves of OR1A1 for propylbenzene in FIG. 6A and 1-hexanol in FIG. 6B. The cells produce light by expressing a luciferase enzyme as a reporter readout from a cAMP secondary messenger. The ligand-mediated GPCR activation leads to intracellular cAMP accumulation which triggers a luciferase activity increase which is measured.

[3] = system: exogenous ethylene benzene responsive GPCR; settings: pure 5 μL hanging droplet on plate lid, no direct contact; transfected human embryonic kidney cells; within minutes
Method: Transfected human embryonic kidney cells were seeded at 60,000 cells per well in a poly-D-lysine coated 96-well plate. The exogenous ethylene benzene responsive GPCR and calcium reporter were present in the cytosol. Pure ethylene benzene was deposited as a hanging 5 μL droplet on the plate lid. Once the plate was placed over the well, there was no direct contact between the […] and the culture medium overlaid cells.

MOR271-1 = settings: cited from earlier work

detection by mOR256, luminescent assay dose response curve (mOR256): detection
SMILES: CCCCCCO [1-hexanol]

SMILES: CCCCCCC(C)=O [2-octanone]
binding to receptor MOR272-1 (MOR272-1): bind differentially | binding to receptor OR1A1 (OR1A1 [1]): bind differentially | binding to receptor MOR203-1 (MOR203-1): bind differentially | binding to receptor OR2W1 (OR2W1): bind differentially

detection by OR1A1, luminescent assay dose response curve (OR1A1 [2]): detection
SMILES: CCCc1ccccc1 [propylbenzene]

SMILES: C=C.c1ccccc1 [ethylene benzene]
fluorescence of the calcium reporter after gas phase exposure [3]: measurable fluorescence increase

SMILES: CCCCC(=O)CC [3-heptanone]
binding to receptor MOR272-1 (MOR272-1): bind differentially | binding to receptor OR1A1 (OR1A1 [1]): bind differentially | binding to receptor MOR203-1 (MOR203-1): bind differentially | binding to receptor OR2W1 (OR2W1): bind differentially | binding to receptor MOR271-1 (MOR271-1): bind differentially
